Measured values published in ChEMBL document CHEMBL1201862, “PubChem BioAssay data set” (2004).
Activity calls are given as the source filed them.

Assays:
[1] = system: Escherichia coli; test: microbe, parasite or virus in culture
[2] = biological target: T1, Replicative DNA helicase DnaB (Mycobacterium tuberculosis, UniProt P9WMR3); test: DnaB intein splicing inhibitors, dose response, biochemical, cell-free fluorescence (AID 449749); type: functional
T1 sequence (P9WMR3 whole entry): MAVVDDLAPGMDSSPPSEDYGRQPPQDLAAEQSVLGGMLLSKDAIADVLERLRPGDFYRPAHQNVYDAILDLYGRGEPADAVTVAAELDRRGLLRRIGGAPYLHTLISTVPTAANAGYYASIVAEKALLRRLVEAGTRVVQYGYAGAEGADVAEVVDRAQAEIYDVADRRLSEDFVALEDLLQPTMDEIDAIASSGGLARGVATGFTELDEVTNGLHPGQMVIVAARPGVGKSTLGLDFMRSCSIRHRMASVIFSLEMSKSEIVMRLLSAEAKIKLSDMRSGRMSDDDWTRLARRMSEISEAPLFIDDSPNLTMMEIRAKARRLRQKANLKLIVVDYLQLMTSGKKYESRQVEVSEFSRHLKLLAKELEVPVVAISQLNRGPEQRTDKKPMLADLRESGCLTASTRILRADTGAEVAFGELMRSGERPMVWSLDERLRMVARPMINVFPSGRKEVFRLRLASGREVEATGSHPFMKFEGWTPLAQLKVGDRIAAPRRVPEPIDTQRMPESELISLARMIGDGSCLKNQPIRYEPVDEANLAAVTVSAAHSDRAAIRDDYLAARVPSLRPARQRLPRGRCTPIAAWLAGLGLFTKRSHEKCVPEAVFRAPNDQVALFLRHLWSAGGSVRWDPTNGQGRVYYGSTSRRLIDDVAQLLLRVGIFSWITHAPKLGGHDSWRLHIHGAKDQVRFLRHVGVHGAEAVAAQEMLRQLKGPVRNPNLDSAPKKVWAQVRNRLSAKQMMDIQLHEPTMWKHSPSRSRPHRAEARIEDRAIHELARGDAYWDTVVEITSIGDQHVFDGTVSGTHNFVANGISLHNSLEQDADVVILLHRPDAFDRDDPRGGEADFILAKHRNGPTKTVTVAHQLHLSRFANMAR

[3] = system: BJ; test: cytotoxicity toward BJ-TERT-LT-ST fibroblasts, dose response, cell-based, RAS-independent, luminescence (AID 1935); type: functional; details: Homo sapiens;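 note: BJ fibroblasts immortalized with TERT plus LT and ST oncogenes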
[4] = system: BJ; test: cells; type: functional, cell-based; details: Homo sapiens
[5] = biological target: T2, G-protein coupled receptor 55 (Homo sapiens, UniProt Q9Y2T6); test: GPR55 antagonists blocking LPI-driven arrestin recruitment, primary screen, imaging, U2OS, beta-arrestin-GFP, LPI agonist (AID 2013); type: functional;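 note: antagonist potency measured as reduced agonist-driven arrestin aggregation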
[6] = biological target: T2, G-protein coupled receptor 55; test: GPR55 agonists via beta-arrestin recruitment, primary screen, imaging, U2OS cells, beta-arrestin-GFP redistribution (AID 1961); type: functional
[7] = system: HEK293; test: HEK cell cytotoxicity by LDH release, dose response, cytotoxicity control for IDE activator project, fluorescence, HEK cells (AID 588440); type: functional, cell-based; details: Homo sapiens;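 note: cytotoxicity by LDH release measuring loss of membrane integrity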
[8] = system: Vero; test: cells; type: functional; details: Chlorocebus sabaeus
[9] = biological target: T3, Insulin-degrading enzyme (Homo sapiens, UniProt P14735); test: activators of endogenous IDE in HEK cells, dose response, cell-based, fluorescence polarization (AID 588439); type: functional
T3 sequence (P14735 whole entry): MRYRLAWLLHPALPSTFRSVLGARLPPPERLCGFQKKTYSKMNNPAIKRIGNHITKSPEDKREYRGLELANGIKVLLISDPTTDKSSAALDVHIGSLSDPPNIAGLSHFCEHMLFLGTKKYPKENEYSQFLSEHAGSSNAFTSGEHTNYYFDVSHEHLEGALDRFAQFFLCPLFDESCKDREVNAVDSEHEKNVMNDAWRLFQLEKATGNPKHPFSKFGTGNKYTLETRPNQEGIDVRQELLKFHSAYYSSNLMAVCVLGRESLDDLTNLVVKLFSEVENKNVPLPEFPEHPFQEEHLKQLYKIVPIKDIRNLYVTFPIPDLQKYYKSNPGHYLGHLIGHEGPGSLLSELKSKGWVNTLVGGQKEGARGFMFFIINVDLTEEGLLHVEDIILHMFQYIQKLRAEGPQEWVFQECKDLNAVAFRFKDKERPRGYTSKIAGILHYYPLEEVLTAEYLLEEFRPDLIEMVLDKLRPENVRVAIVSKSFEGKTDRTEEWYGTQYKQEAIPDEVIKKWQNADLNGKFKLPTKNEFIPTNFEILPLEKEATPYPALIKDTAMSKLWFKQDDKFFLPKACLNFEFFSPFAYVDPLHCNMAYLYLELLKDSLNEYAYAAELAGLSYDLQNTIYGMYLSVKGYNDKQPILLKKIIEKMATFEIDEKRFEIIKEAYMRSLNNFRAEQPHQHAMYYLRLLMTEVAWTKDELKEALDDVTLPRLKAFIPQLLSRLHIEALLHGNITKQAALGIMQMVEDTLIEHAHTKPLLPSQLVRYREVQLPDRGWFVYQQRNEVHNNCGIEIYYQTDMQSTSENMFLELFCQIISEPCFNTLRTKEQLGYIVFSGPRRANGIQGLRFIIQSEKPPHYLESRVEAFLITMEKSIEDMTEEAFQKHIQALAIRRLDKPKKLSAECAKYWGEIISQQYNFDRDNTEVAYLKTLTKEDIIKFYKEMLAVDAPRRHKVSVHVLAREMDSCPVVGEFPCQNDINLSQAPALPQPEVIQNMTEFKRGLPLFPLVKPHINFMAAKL

[10] = system: HEK293; test: cells; details: Homo sapiens
[11] = system: BJ; test: cytotoxicity toward BJ-TERT fibroblasts, dose response, cell-based, RAS-independent, luminescence (AID 1933); type: functional; details: Homo sapiens
[12] = biological target: T4, Protein RecA (Mycobacterium tuberculosis, UniProt P9WHJ3); test: Fluorescence Cell-Free Homogeneous Dose Retest to Identify Inhibitors of RecA-Intein Splicing Activity. [Related pubchem assays (depositor defined):AID2097, AID2223, AID489010, AID492950]; type: functional
T4 sequence (P9WHJ3 whole entry): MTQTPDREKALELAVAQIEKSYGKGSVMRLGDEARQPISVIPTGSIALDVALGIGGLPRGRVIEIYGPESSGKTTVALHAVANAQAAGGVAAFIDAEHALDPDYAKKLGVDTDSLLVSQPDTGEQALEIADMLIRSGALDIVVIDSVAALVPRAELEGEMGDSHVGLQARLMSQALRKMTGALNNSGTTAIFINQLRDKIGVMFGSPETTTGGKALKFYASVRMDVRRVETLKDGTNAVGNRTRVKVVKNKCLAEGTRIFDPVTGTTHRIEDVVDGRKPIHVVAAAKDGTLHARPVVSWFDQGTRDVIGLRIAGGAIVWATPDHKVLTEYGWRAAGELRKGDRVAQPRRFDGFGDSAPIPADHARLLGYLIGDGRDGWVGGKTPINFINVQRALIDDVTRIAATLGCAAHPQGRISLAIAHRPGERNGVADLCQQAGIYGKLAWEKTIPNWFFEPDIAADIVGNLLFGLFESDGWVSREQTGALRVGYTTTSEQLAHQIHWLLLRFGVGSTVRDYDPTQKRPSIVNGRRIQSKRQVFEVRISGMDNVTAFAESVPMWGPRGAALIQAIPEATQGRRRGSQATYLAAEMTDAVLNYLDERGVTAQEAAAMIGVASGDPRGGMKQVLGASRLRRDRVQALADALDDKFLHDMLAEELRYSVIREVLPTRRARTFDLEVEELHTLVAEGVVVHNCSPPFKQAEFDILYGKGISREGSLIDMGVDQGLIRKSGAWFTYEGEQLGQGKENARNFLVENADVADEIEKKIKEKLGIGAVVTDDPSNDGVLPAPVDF

[13] = system: BJ; test: cytotoxicity toward Ras-transformed BJeLR fibroblasts, dose response, cell-based, alamar blue fluorescence, cherrypicked samples (AID 2631); type: functional; details: Homo sapiens;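 note: confirmatory dose-response assay in RAS-dependent BJ fibroblasts engineered with TERT, LT and ST, with cytotoxicity read by fluorescence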
[14] = cytotoxicity toward DRD oncogenic fibroblasts, dose response, cell-based, non-viral oncogenic, luminescence (AID 1934); type: functional; details: Homo sapiens
[15] = system: HEK293; test: optical interference in Abeta FP readout, dose response, artefact control for IDE activator project, biochemical, fluorescence polarization (AID 588442); type: functional, cell-based; details: Homo sapiens
[16] = biological target: T3, Insulin-degrading enzyme; test: activators of recombinant IDE enzyme, dose response, counter-screen for IDE activator project, biochemical, fluorescence polarization (AID 588681)
[17] = system: HEK293; test: cells; details: Homo sapiens; remark: listed apart in the source
[18] = biological target: 5-hydroxytryptamine receptor 5A (Homo sapiens, UniProt P47898); test: Counterscreen for agonists of OPRM1-OPRD1 heterodimerization: luminescence-based cell-based high throughput dose response assay to identify agonists of 5-hydroxytryptamine (serotonin) 5A receptor (HTR5A). [Related pubchem assays (depositor defined):AID504326, AID504355, AID504692, AID504904, AID504905]; type: functional
[19] = biological target: Delta-type opioid receptor (Homo sapiens, UniProt P41143); test: Counterscreen for agonists of heterodimerization of the mu 1 (OPRM1) and delta 1 (OPRD1) opioid receptors: Luminescence-based cell-based high throughput dose response assay to identify agonists of OPRD1 homodimerization. [Related pubchem assays (depositor defined):AID504326, AID504355, AID504692, AID504904, AID504905]; type: functional
[20] = biological target: Mu-type opioid receptor (Homo sapiens, UniProt P35372); test: Counterscreen for agonists of heterodimerization of the mu 1 (OPRM1) and delta 1 (OPRD1) opioid receptors: Luminescence-based cell-based high throughput dose response assay to identify agonists of OPRM1 homodimerization.; type: functional;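 note: U2OS cells expressing OPRM1 and beta-arrestin as split beta-galactosidase partners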
[21] = biological target: T5, Short transient receptor potential channel 4 (Mus musculus, UniProt Q9QUQ5); test: mouse TRPC4 channel activators, dose response, cell-based, HEK293 TRPC4/mu-opioid, Fluo-4 calcium (AID 434937); type: functional
T5 sequence (Q9QUQ5 whole entry): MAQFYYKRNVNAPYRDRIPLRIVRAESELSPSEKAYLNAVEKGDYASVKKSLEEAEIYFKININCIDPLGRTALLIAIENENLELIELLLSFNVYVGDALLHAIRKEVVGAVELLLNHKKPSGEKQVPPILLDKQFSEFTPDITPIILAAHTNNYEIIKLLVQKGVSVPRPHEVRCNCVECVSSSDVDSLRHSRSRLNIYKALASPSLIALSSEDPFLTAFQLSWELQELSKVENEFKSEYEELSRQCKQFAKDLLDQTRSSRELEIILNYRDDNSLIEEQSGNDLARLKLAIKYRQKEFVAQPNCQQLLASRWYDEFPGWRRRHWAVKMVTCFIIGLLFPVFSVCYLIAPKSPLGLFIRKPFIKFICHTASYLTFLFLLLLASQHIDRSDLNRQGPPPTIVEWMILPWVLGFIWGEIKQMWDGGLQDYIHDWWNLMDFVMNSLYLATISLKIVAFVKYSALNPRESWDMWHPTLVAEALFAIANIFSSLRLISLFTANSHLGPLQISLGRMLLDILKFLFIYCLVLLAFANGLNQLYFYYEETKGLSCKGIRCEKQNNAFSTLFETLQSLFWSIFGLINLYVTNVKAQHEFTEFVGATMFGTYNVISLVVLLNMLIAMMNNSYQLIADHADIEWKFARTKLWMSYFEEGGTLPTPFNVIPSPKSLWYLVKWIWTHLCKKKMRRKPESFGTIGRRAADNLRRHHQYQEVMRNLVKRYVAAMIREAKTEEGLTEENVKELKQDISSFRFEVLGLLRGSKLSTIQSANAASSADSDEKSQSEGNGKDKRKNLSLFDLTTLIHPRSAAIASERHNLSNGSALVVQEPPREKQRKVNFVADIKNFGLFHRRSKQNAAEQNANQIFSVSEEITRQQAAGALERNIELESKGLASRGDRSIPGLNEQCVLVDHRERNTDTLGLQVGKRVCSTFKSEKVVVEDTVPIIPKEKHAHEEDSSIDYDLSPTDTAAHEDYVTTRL

[22] = system: A-375; test: A375 melanoma cell viability reduction, dose response, counter-screen for MITF modulator project, cherry-pick samples, set 2 (AID 540335); type: functional, cell-based; details: Homo sapiens
[23] = system: A-375; test: MITF: Counter assay: A375 proliferation Measured in Cell-Based System Using Plate Reader - 2084-03_Inhibitor_Dose_DryPowder_Activity. [Related pubchem assays (depositor defined):AID488944]; type: functional; details: Homo sapiens

T2 sequence (Q9Y2T6 whole entry): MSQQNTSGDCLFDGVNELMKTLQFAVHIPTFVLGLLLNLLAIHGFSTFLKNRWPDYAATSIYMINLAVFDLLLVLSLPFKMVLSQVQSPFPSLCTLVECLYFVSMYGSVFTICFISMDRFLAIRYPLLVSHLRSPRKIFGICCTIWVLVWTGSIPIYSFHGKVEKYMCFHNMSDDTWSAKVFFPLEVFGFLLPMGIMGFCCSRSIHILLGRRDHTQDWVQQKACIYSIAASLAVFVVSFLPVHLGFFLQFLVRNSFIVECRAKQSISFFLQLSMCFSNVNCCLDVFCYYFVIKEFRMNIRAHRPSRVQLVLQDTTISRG
5-hydroxytryptamine receptor 5A, sequence (P47898 whole entry): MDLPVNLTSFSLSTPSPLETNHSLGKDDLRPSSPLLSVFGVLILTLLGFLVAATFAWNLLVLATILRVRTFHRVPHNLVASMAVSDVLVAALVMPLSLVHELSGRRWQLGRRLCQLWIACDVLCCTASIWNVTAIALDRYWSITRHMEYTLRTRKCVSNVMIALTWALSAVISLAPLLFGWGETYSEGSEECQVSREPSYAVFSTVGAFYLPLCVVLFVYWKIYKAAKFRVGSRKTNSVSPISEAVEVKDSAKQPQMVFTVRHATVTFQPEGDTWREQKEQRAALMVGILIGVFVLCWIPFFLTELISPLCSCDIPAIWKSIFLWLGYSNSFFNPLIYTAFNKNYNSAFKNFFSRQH
Mu-type opioid receptor, sequence (P35372 whole entry): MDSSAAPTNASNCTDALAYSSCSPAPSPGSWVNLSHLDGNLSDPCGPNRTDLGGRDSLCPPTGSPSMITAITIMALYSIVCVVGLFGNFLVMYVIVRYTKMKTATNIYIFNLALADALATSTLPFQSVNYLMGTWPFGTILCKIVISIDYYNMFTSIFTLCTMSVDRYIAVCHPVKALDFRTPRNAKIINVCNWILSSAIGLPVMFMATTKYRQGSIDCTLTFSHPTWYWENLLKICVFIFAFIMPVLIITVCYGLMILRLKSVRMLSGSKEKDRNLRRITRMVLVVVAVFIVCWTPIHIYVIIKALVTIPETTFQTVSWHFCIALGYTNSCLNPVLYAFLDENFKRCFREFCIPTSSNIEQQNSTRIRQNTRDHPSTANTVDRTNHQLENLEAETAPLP
Delta-type opioid receptor, sequence (P41143 whole entry): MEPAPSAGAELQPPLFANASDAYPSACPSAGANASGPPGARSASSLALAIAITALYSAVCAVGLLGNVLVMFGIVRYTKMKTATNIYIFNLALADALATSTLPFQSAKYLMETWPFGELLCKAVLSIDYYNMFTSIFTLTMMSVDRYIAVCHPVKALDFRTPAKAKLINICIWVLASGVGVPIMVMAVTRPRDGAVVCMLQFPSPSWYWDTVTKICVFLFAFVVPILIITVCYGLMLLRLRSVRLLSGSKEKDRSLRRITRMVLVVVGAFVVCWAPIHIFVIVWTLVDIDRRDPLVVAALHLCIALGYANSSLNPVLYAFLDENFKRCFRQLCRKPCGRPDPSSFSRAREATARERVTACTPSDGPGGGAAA

c1ccc2c(OCCCN3CCCCCC3)cccc2c1
AC50 [1]: 19.6 µM (active)

CCOC(=O)c1c(CSC(=N)N)n(-c2ccc(C)cc2)c2cc(Br)c(OC(C)=O)cc12
AC50 [2]: 4.79 µM (active)
EC50 [3]: 5.6 µM (active)
EC50 [4]: 12 µM (inconclusive)
IC50 [5]: 5.03 µM (active)
EC50 [6]: > 32 µM (inactive)
IC50 [7]: 9.83 µM (active)
CC50 [8]: > 25 µM (active)
EC50 [9]: > 54.7 µM (inactive)
EC50 [10]: > 59.7 µM (inactive)
EC50 [11]: 5.98 µM (active)
EC50 [12]: 4.25 µM (active)
EC50 [13]: > 133 µM (inactive)
EC50 [14]: 9.02 µM (active)
EC50 [15]: > 54.7 µM (inactive)
EC50 [16]: > 54.7 µM (inactive)
EC50 [17]: > 59.7 µM (inactive)

COC(=O)NCC(c1ccc2c(c1)OCO2)N1CCN(c2ccccc2)CC1 (stereo not drawn)
EC50 [18]: > 92.4 µM (inactive)
EC50 [19]: > 92.4 µM (inactive)
EC50 [20]: 17.3 µM (inactive)
EC50 [21]: 0.105 µM (active)

CCOc1ccc(/N=C(\C)C2=C(O)c3ccccc3C2=O)cc1
AC50 [22]: > 35 µM (active)
AC50 [23]: > 35 µM (active)
